For the assay, the system named is S6 Ribosomal Protein phosphorylation Ser235/236 in TSC1 null mouse embryo fibroblast (MEF) cells. Description: Reverse protein array assay, S6 Ribosomal Protein phosphorylation Ser235/236 in TSC1 null MEF cells. Type of assay: cell-based. To be noted: 1 h, pS6 ribosomal protein Ser235/236, 60 minutes incubation, read-out: p-S6 IC50. In a few lines: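 TSC1−/− MEFs, seeded and held ≥20 h at 37 °C/5% CO2, were exposed to 8-step serial compound dilutions (0.02% DMSO final; DMSO vehicle control) for 60 min at 37 °C. Cells were then lysed on ice for 10 min and lysates spotted onto reverse protein array chips.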

In general, IC50 refers to the midpoint of a concentration-inhibition curve.

As to `Cc1ncc(-c2ccc3ncc4c(c3c2)n(-c2cn(C)nc2C)c(=O)n4C)cc1O` [Example 185.1, 1-(1,3-Dimethyl-1H-pyrazol-4-yl)-8-(5-hydroxy-6-methyl-pyridin-3-yl)-3-methyl-1,3-dihydro-imidazo[4,5-c]quinolin-2-one], the IC50 is 35 nM.
For the molecule `Cc1noc(C)c1-n1c(=O)n(C)c2cnc3ccc(-c4cnc(N)c(Cl)c4)cc3c21` [Example 148.4, 8-(6-Amino-5-chloro-pyridin-3-yl)-1-(3,5-dimethyl-isoxazol-4-yl)-3-methyl-1,3-dihydro-imidazo[4,5-c]quinolin-2-one], the IC50 turned out to be 17.7 nM.
As for `Cc1nn(CC(=O)N(C)C)cc1-n1c(=O)n(C)c2cnc3ccc(-c4ccccc4)cc3c21` [Example 37.3, N,N-Dimethyl-2-[3-methyl-4-(3-methyl-2-oxo-8-phenyl-2,3-dihydro-imidazo[4,5-c]quinolin-1-yl)-pyrazol-1-yl]-acetamide], the figure is 15 nM; as for `CCNc1cc(-c2ccc3ncc4c(c3c2)n(-c2c(C)nn(CCOC)c2C)c(=O)n4C)cnc1OC` [Example 90.2, 8-(5-Ethylamino-6-methoxy-pyridin-3-yl)-1-[1-(2-methoxy-ethyl)-3,5-dimethyl-1H-pyrazol-4-yl]-3-methyl-1,3-dihydro-imidazo[4,5-c]quinolin-2-one], 35 nM.
For `CCOc1ccc(-c2ccc3ncc4c(c3c2)n(-c2ccnn2CC)c(=O)n4C)cn1` [Example 3.4, 8-(6-Ethoxy-pyridin-3-yl)-1-(2-ethyl-2H-pyrazol-3-yl)-3-methyl-1,3-dihydro-imidazo[4,5-c]quinolin-2-one] the value was 199 nM; for `Cc1nn(C)cc1-n1c(=O)n(C)c2cnc3ccc(-c4ccc(-n5cccn5)nc4)cc3c21` [Example 79, 1-(1,3-Dimethyl-1H-pyrazol-4-yl)-3-methyl-8-(6-pyrazol-1-yl-pyridin-3-yl)-1,3-dihydro-imidazo[4,5-c]quinolin-2-one], 5 nM; for `Cc1nn(C)cc1-n1c(=O)n(C)c2cnc3ccc(-c4cncc(C(C)(C)O)c4)cc3c21` [Example 215.2, 1-(1,3-Dimethyl-1H-pyrazol-4-yl)-8-[5-(1-hydroxy-1-methyl-ethyl)-pyridin-3-yl]-3-methyl-1,3-dihydro-imidazo[4,5-c]quinolin-2-one], 3 nM.
In the case of `Cc1nn(CC(=O)N(C)C)c(C)c1-n1c(=O)n(C)c2cnc3ccc(-c4cncc(OC5CCC5)c4)cc3c21` [Example 60.2, 2-{4-[8-(5-Cyclobutoxy-pyridin-3-yl)-3-methyl-2-oxo-2,3-dihydro-imidazo[4,5-c]quinolin-1-yl]-3,5-dimethyl-pyrazol-1-yl}-N,N-dimethyl-acetamide], the IC50 amounted to 11 nM.
For `Cc1ncc(-c2ccc3ncc4c(c3c2)n(-c2cn(C)nc2C)c(=O)n4C)cc1N(C)C` [Example 164, 8-(5-Dimethylamino-6-methyl-pyridin-3-yl)-1-(1,3-dimethyl-1H-pyrazol-4-yl)-3-methyl-1,3-dihydro-imidazo[4,5-c]quinolin-2-one] the value was 1 nM; for `CCNc1cc(-c2ccc3ncc4c(c3c2)n(-c2c(C)nn(C)c2C)c(=O)n4C)cnc1F` [Example 154.1, 8-(5-Ethylamino-6-fluoro-pyridin-3-yl)-3-methyl-1-(1,3,5-trimethyl-1H-pyrazol-4-yl)-1,3-dihydro-imidazo[4,5-c]quinolin-2-one], 3 nM; for `CNc1ncc(-c2ccc3ncc4c(c3c2)n(-c2cn(C)nc2C)c(=O)n4C)cc1F` [Example 141.2, 1-(1,3-Dimethyl-1H-pyrazol-4-yl)-8-(5-fluoro-6-methylamino-pyridin-3-yl)-3-methyl-1,3-dihydro-imidazo[4,5-c]quinolin-2-one], 1 nM.
As for `[2H]C([2H])([2H])OCc1ncc(-c2ccc3ncc4c(c3c2)n(-c2cn(C)nc2Cl)c(=O)n4C)cc1OC` [Example 199, 1-(3-Chloro-1-methyl-1H-pyrazol-4-yl)-8-(5-methoxy-6-trideuteromethoxymethyl-pyridin-3-yl)-3-methyl-1,3-dihydro-imidazo[4,5-c]quinolin-2-one], the figure is 2 nM.
As for `CCNc1ncc(-c2ccc3ncc4c(c3c2)n(-c2cn(C)nc2C)c(=O)n4C)cc1COCC` [Example 167, 1-(1,3-Dimethyl-1H-pyrazol-4-yl)-8-(5-ethoxymethyl-6-ethylamino-pyridin-3-yl)-3-methyl-1,3-dihydro-imidazo[4,5-c]quinolin-2-one], the figure is 7 nM; as for `CNc1ncc(-c2ccc3ncc4c(c3c2)n(-c2c(C)nn(C)c2C)c(=O)n4C)cc1Cl` [Example 146.4, 8-(5-Chloro-6-methylamino-pyridin-3-yl)-3-methyl-1-(1,3,5-trimethyl-1H-pyrazol-4-yl)-1,3-dihydro-imidazo[4,5-c]quinolin-2-one], 12 nM.
With `COc1ncc(-c2ccc3ncc4c(c3c2)n(-c2cn(C)nc2C)c(=O)n4C)cc1NC(C)=O` [Example 64, N-{5-[1-(1,3-Dimethyl-1H-pyrazol-4-yl)-3-methyl-2-oxo-2,3-dihydro-1H-imidazo[4,5-c]quinolin-8-yl]-2-methoxy-pyridin-3-yl}-acetamide], the IC50 was 5 nM.
Take `COc1cc(-c2ccc3ncc4c(c3c2)n(-c2cn(C)nc2C)c(=O)n4C)cnc1CO` [Example 193, 1-(1,3-Dimethyl-1H-pyrazol-4-yl)-8-(6-hydroxymethyl-5-methoxy-pyridin-3-yl)-3-methyl-1,3-dihydro-imidazo[4,5-c]quinolin-2-one]: the IC50 was 5.53 nM.
Take `CNc1cc(-c2ccc3ncc4c(c3c2)n(-c2cn(C)nc2C)c(=O)n4C)cnc1F` [Example 150.2, 1-(1,3-Dimethyl-1H-pyrazol-4-yl)-8-(6-fluoro-5-methylamino-pyridin-3-yl)-3-methyl-1,3-dihydro-imidazo[4,5-c]quinolin-2-one]: the IC50 was 1 nM.
As for `COCc1ncc(-c2ccc3ncc4c(c3c2)n(-c2cn(C(C)C)nc2C)c(=O)n4C)cc1OC` [Example 195.2, 1-(1-Isopropyl-3-methyl-1H-pyrazol-4-yl)-8-(5-methoxy-6-methoxymethyl-pyridin-3-yl)-3-methyl-1,3-dihydro-imidazo[4,5-c]quinolin-2-one], the figure is 31 nM.
As for `COCc1ncc(-c2ccc3ncc4c(c3c2)n(-c2cn(C)nc2C)c(=O)n4C)cc1OC` [Example 195.1, 1-(1,3-Dimethyl-1H-pyrazol-4-yl)-8-(5-methoxy-6-methoxymethyl-pyridin-3-yl)-3-methyl-1,3-dihydro-imidazo[4,5-c]quinolin-2-one], the figure is 5 nM.
As for `COc1ncc(-c2ccc3ncc4c(c3c2)n(-c2cn(C)nc2C)c(=O)n4C)cc1C#N` [Example 132, 5-[1-(1,3-Dimethyl-1H-pyrazol-4-yl)-3-methyl-2-oxo-2,3-dihydro-1H-imidazo[4,5-c]quinolin-8-yl]-2-methoxy-nicotinonitrile], the figure is 3 nM.
As for `COCc1cc(-c2ccc3ncc4c(c3c2)n(-c2cn(C)nc2C)c(=O)n4C)cnc1OC` [Example 202, 1-(1,3-Dimethyl-1H-pyrazol-4-yl)-8-(6-methoxy-5-methoxymethyl-pyridin-3-yl)-3-methyl-1,3-dihydro-imidazo[4,5-c]quinolin-2-one], the IC50 was 1 nM.

These data come from patent US20140005163A1 (NOVARTIS AG, priority 2010, published 2014).
